The assay in a line: L-arginine phytanate method of use: 4-week oral post-workout supplementation in an experienced weight trained person (body weight, bench press). The assay is classed as in vivo, human. An excerpt: In this example a experienced weight trained person orally consumes 3 grams of L-arginine phytanate post workout for 4 weeks as a beverage, consumes no supplements for 4 weeks, then orally consumes phytanic acid in the same manner post workout for 4 weeks. The L-arginine phytanate is incorporated into free powder mixture of flavoring agents and palatinose, which is then combined with water. Once in the plasma L-arginine phytanate then exerts a synergistic lean tissue promoting effect due to the anabolic actions of phytanic acid and L-arginine. Phytanic acid activates PPAR alpha, beta/delta, gamma, and increases nitric oxide synthase thus increasing nitric oxide production. This wide range of PPAR receptor activation and nitric oxide release combined with a high protein diet and anaerobic training program, enhances muscle building and fat loss. The L-arginine synergistically promotes protein synthesis and nitric oxide release. These physiological functions lead to increases in lean body mass, strength, endurance, recovery and loss of body fat. The test subject reported a weight gain of 5 lbs., a 25-pound increase in 1 repetition maximum (RM) bench press, and 6-repetition increase in initial 70 percent maximum bench press at the end of the L-arginine phytanate 4-week period as compared to baseline values. These increases contribute to the regulation of athletic function and thus lead to enhanced physical performance. […] During the final phase of the experiment, the test subject reported no increases in body weight, 1 repetition maximum bench press, or 70 percent maximum bench press.

[1] abbreviates: experienced weight trained person, 3 grams orally post workout for 4 weeks, end of 4-week period compared to baseline.
Setting [2] is: same subject, final phase after 4-week washout, orally in the same manner post workout for 4 weeks, result in words.

Entries after “also recorded” stand apart in the source; their conditions may differ.

As for `CC(C)CCCC(C)CCCC(C)CCCC(C)CC(=O)O.N=C(N)NCCC[C@H](N)C(=O)O` [L-arginine phytanate, 3,7,11,15-tetramethylhexadecanoic L-arginine salt], the weight gain (experienced weight trained person, 3 grams orally post workout for 4 weeks as a beverage, end of 4-week period compared to baseline) was found to be 5 lbs. Under setting [1], the “increase in 1 repetition maximum (RM) bench press” value is 25 pound and the “increase in initial 70 percent maximum bench press” value came to 6 repetition.

For the compound `CC(C)CCCC(C)CCCC(C)CCCC(C)CC(=O)O` (stereo not drawn) [phytanic acid, 3,7,11,15-tetramethylhexadecanoic acid], under setting [2], the “1 repetition maximum bench press change” value was “no increases”, the “70 percent maximum bench press change” value is given as “no increases” and the body weight change entry is “no increases; also recorded: decrease in body weight”.

The values are drawn from patent publication US20080076721A1, “Use of branched chain fatty acid amino acid salts and compositions thereof” (priority 2006, published 2008).
